Results from patent US20260285857A1, “BICYCLIC AND HETEROCYCLIC AMIDE COMPOUNDS” (priority 2024, published 2026).

Test system: immunoglobulin light chain protein WIL-FL T46L
Assay: Differential scanning fluorimetry (thermal shift) assay
Assay type: binding
Conditions: temperature shift [Tm]compound-[Tm]vehicle, recombinant WIL-FL T46L

SMILES | DSF (Table B) | DSF (Table A)
Cc1cc(N2CC[C@](C)(c3ccccc3)C2)cn2nc(C(=O)NC3CC4(C3)CN(C(=O)C35CC(C(=O)O)(C3)C5)C4)nc12 [Compound 681] | ***** (>2.5° C.=*****) | 
Cc1cc(N2CC3(CCC3c3cccc(Cl)c3)C2)cn2nc(C(=O)N3CC[C@@]4(CCN(c5cccc(C(=O)O)n5)C4)C3)nc12 (stereo partly shown) [Compound 740] | **** (>1.5-2.5° C.=****) | 
Cc1cc(N2CC[C@](C)(c3ccccc3)C2)cn2nc(C(=O)NC3CC4(C3)OCC4N3CCC(C(=O)O)CC3)nc12 (stereo partly shown) [Compound 359] |  | ***** (>2.5° C.=*****)
Cc1cc(N2CC[C@](C)(c3ccccc3)C2)cn2nc(C(=O)N3CC4CN(c5cccc(C(=O)O)n5)CC4(C(N)=O)C3)nc12 (stereo partly shown) [Compound 255] |  | ***** (>2.5° C.=*****)
Cc1cc(N2CC[C@](C)(c3ccccc3)C2)cn2nc(C(=O)N3C[C@@H]4[C@@H](C(=O)O)CO[C@@H]4C3)nc12 [Compound 595] | ***** (>2.5° C.=*****) | 
CNC(=O)c1cc2c(C)cc(N3CC[C@](C)(c4ccccc4)C3)cn2n1 [Compound 433] |  | ***** (>2.5° C.=*****)
C[C@]1(c2ccccc2)CCN(c2cc(CO)c3nc(C(=O)N4CCC5(CCN(c6cccc(C(=O)O)n6)C5)C4)nn3c2)C1 (stereo partly shown) [Compound 343] |  | ***** (>2.5° C.=*****)
Cc1cc(N2CC[C@](C)(c3ccccc3)C2)cn2nc(C(=O)N[C@@H]3CC[C@H]3O)nc12 [Compound 160] |  | ***** (>2.5° C.=*****)
CNC(=O)c1nc2c(C)cc(N3CC[C@](C)(c4ccccc4)C3)cn2n1 [Compound 170] |  | ***** (>2.5° C.=*****)
Cc1cc(N2CC[C@](C)(c3ccccc3)C2)cn2nc(C(=O)N3CC4COCC4(C(=O)O)C3)nc12 (stereo partly shown) [Compound 604] | ***** (>2.5° C.=*****) | 
Cc1cc(N2CC[C@](C)(c3ccccc3)C2)cn2nc(C(=O)N3CCC4C3CCN4c3cccc(C(=O)O)n3)nc12 (stereo partly shown) [Compound 611] | ***** (>2.5° C.=*****) | 
Cc1cc(N2CC[C@](C)(c3ccc(F)c(Cl)c3)C2)cn2nc(C(=O)N3CC[C@@]4(CCN(c5cccc(C(=O)O)n5)C4)C3)nc12 [Compound 748] | ***** (>2.5° C.=*****) | 
CC(O)c1cc(N2CC[C@](C)(c3ccccc3)C2)cn2nc(C(=O)NC3CC4(C3)CC(N3CC5C(C3)C5C(=O)O)C4)nc12 (stereo partly shown) [Compound 341] |  | ***** (>2.5° C.=*****)
Cc1cc(N2CC[C@](C)(c3ccccc3)C2)cn2nc(C(=O)NC3CCN(N4C[C@@H](O)[C@@H](O)C4)C3)nc12 (stereo partly shown) [Compound 156] |  | ***** (>2.5° C.=*****)
Cc1cc(N2CC[C@](C)(c3ccccc3)C2)cn2nc(C(=O)NC3CN(c4cccc(C(=O)O)n4)C3)nc12 [Compound 217] |  | ***** (>2.5° C.=*****)
Cc1cc(OC[C@H](C)c2ccccc2)cn2nc(C(=O)NC3CCN(c4cccc(C(=O)O)n4)C3)nc12 (stereo partly shown) [Compound 305] |  | ***** (>2.5° C.=*****)
Cc1cc(OCC2(c3ccccc3)CC2)cn2nc(C34CC(N)(CO3)C4)nc12 [Compound 57] |  | ***** (>2.5° C.=*****)
Cc1cc(N2CC[C@](C)(c3ccccc3)C2)cn2nc(C(=O)N3C[C@@]4(C)CN(c5cccc(C(=O)O)n5)C[C@@]4(C)C3)nc12 [Compound 252] |  | ***** (>2.5° C.=*****)
COC(=O)c1cccc(-c2nc3n(n2)CCN(C(=O)c2nc4c(C)cc(N5CC[C@](C)(c6ccccc6)C5)cn4n2)C3)n1 [Compound 403] |  | ***** (>2.5° C.=*****)
Cc1cc(N2CC[C@](C)(c3ccccc3)C2)cn2nc(C(=O)N3CCC4(CCN(c5nc(C(=O)O)cs5)C4)C3)nc12 (stereo partly shown) [Compound 218] |  | ***** (>2.5° C.=*****)
Cc1cc(N2CCC(C)(c3ccccn3)C2)cn2nc(C(=O)NC3CCN(c4cccc(C(=O)O)n4)CC3)nc12 (stereo not shown) [Compound 34, 6-[4-[[8-methyl-6-[3-methyl-3-(2-pyridyl)pyrrolidin-1-yl]-[1,2,4]triazolo[1,5-a]pyridine-2-carbonyl]amino]-1-piperidyl]pyridine-2-carboxylic acid] |  | **** (>1.5-2.5° C.=****)
Cc1cc(N2CC[C@](C)(c3ccccc3)C2)cn2nc(C(=O)NC3CCC4CCC3N4c3cccc(C(=O)O)n3)nc12 (stereo partly shown) [Compound 620] | ***** (>2.5° C.=*****) | 
